Literature values as cited in paper PMC5742115, “Pharmacophore Modeling and in Silico/in Vitro Screening for Human Cytochrome P450 11B1 and Cytochrome P450 11B2 Inhibitors” (Frontiers in Chemistry, 2017).
Like-named read-outs stand apart in the source and are kept apart here.

Assays:
CYP11B1 = settings: cited from earlier work
CYP11B2 = settings: cited from earlier work
[1] = reported activity, supplementary Table 1, ref Lucas et al., 2008b, read-out: CYP11B1 IC50
[2] = reported activity, supplementary Table 1, ref Lucas et al., 2008b, read-out: CYP11B2 IC50
[3] = reported activity, supplementary Table 1, ref Gobbi et al., 2013, read-out: CYP11B1 IC50
[4] = reported activity, supplementary Table 1, ref Gobbi et al., 2013, read-out: CYP11B2 IC50
[5] = reported activity, supplementary Table 1, ref Ulmschneider et al., 2005b, read-out: CYP11B1 IC50
[6] = reported activity, supplementary Table 1, ref Ulmschneider et al., 2005b, read-out: CYP11B2 IC50
[7] = reported activity, supplementary Table 1, ref Lucas et al., 2011, read-out: CYP11B1 IC50
[8] = reported activity, supplementary Table 1, ref Lucas et al., 2011, read-out: CYP11B2 IC50
[9] = reported activity, supplementary Table 1, ref Ulmschneider et al., 2005a, read-out: CYP11B1 IC50
[10] = reported activity, supplementary Table 1, ref Ulmschneider et al., 2005a, read-out: CYP11B2 IC50
[11] = reported activity, supplementary Table 1, ref Hille et al., 2011b, read-out: CYP11B1 IC50
[12] = reported activity, supplementary Table 1, ref Hille et al., 2011b, read-out: CYP11B2 IC50
[13] = reported activity, supplementary Table 1, ref Heim et al., 2008, read-out: CYP11B1 IC50
[14] = reported activity, supplementary Table 1, ref Heim et al., 2008, read-out: CYP11B2 IC50
[15] = reported activity, supplementary Table 1, ref Pinto-Bazurco Mendieta et al., 2013, read-out: CYP11B1 IC50
[16] = reported activity, supplementary Table 1, ref Pinto-Bazurco Mendieta et al., 2013, read-out: CYP11B2 IC50
[17] = reported activity, supplementary Table 1, ref Roumen et al., 2010, read-out: CYP11B1 IC50
[18] = reported activity, supplementary Table 1, ref Roumen et al., 2010, read-out: CYP11B2 IC50
[19] = reported activity, supplementary Table 1, ref Voets et al., 2005, read-out: CYP11B1 IC50
[20] = reported activity, supplementary Table 1, ref Voets et al., 2005, read-out: CYP11B2 IC50
[21] = reported activity, supplementary Table 1, ref Emmerich et al., 2013, read-out: CYP11B1 IC50
[22] = reported activity, supplementary Table 1, ref Emmerich et al., 2013, read-out: CYP11B2 IC50
[23] = reported activity, supplementary Table 1, ref Yin et al., 2013, read-out: CYP11B1 IC50
[24] = reported activity, supplementary Table 1, ref Yin et al., 2013, read-out: CYP11B2 IC50
[25] = Figure 2, ref Yin et al., 2012, Emmerich et al., 2013, Gobbi et al., 2016, read-out: hCYP11B1 IC50
[26] = Figure 2, ref Yin et al., 2012, Emmerich et al., 2013, Gobbi et al., 2016, read-out: hCYP11B2 IC50

## N#Cc1ccc([C@@]2(C(=O)OCc3ccc(F)cc3)CCc3cncn32)c(Cl)c1 [CHEMBL3099689]
CYP11B1; reported activity, supplementary Table 1, ref Meredith et al., 2013, read-out: CYP11B1 IC50
  IC50: 0.1 nM
CYP11B2; reported activity, supplementary Table 1, ref Meredith et al., 2013, read-out: CYP11B2 IC50
  IC50: 3.8 nM

## S=C1CCc2cc(-c3cccnc3)cc(Cl)c2N1 [CHEMBL508155]
CYP11B1; [1]
  IC50: 769 nM
CYP11B2; [2]
  IC50: 4.2 nM

## O=c1c2ccccc2oc2c(Cl)ccc(Cn3ccnc3)c12 [CHEMBL2333326]
CYP11B1; [3]
  IC50: 0.5 nM
CYP11B2; [4]
  IC50: 3 nM

## C(=C1/CCc2ccccc21)/c1cnc[nH]1 [CHEMBL177468]
CYP11B1; [5]
  IC50: 29.5 nM
CYP11B2; [6]
  IC50: 41 nM

## O=C1CCc2cc(-c3cncc(O)c3)cc3c2N1CC3 [CHEMBL1765211]
CYP11B1; [7]
  IC50: 2040 nM
CYP11B2; [8]
  IC50: 4.3 nM

## O=C1CCc2cc(-c3cncc4ccccc34)cc3c2N1CCC3 [CHEMBL1765215]
CYP11B1; [7]
  IC50: 34 nM
CYP11B2; [8]
  IC50: 0.2 nM

## COc1ccc2c(c1)CC/C2=C/c1cccnc1 [CHEMBL176101]
CYP11B1; [9]
  IC50: 790 nM
CYP11B2; [10]
  IC50: 26 nM

## COc1cccc(-c2cncc(-c3cc4c5c(c3)CCN5C(=O)CC4)c2)c1 [CHEMBL1765227]
CYP11B1; [7]
  IC50: 1370 nM
CYP11B2; [8]
  IC50: 4.6 nM

## c1ccc(-c2cccc(Cn3ccnc3)c2)cc1 [CHEMBL1651497]
CYP11B1; [11]
  IC50: 46 nM
CYP11B2; [12]
  IC50: 265 nM

## COc1ccc2cc(-c3cncc(C(C)O)c3)ccc2c1 (stereo not drawn) [CHEMBL500395]
CYP11B1; [13]
  IC50: 99 nM
CYP11B2; [14]
  IC50: 0.5 nM

## O=C1CCc2cc(-c3cncc(C(F)(F)F)c3)cc3c2N1CC3 [CHEMBL1765213]
CYP11B1; [7]
  IC50: 141 nM
CYP11B2; [8]
  IC50: 5.9 nM

## COc1cncc(-c2ccc3ccc(O)cc3c2Cl)c1 [CHEMBL2420682]
CYP11B1; [15]
  IC50: 245 nM
CYP11B2; [16]
  IC50: 15 nM

## COC(=O)CCc1cncn1Cc1ccc(C#N)cc1 [CHEMBL591229]
CYP11B1; [17]
  IC50: 31 nM
CYP11B2; [18]
  IC50: 3.5 nM

## N#Cc1ccc2c(c1)CC/C2=C/c1ncc[nH]1 [CHEMBL175091]
CYP11B1; [5]
  IC50: 12.3 nM
CYP11B2; [6]
  IC50: 35.7 nM

## Brc1ccc(Cn2cncc2-c2ccccc2)cc1 [CHEMBL597173]
CYP11B1; [17]
  IC50: 7 nM
CYP11B2; [18]
  IC50: 5.1 nM

## Cc1cc(C)c(Cn2ccnc2)c(C)c1 [CHEMBL1649605]
CYP11B1; [11]
  IC50: 24 nM
CYP11B2; [12]
  IC50: 30 nM

## O=c1c2ccccc2oc2c(Br)ccc(Cn3ccnc3)c12 [CHEMBL78322]
CYP11B1; [3]
  IC50: 6.7 nM
CYP11B2; [4]
  IC50: 8.5 nM

## c1ccc2cc(-n3ccnc3)ccc2c1 [CHEMBL195996]
CYP11B1; [19]
  IC50: 1320 nM
CYP11B2; [20]
  IC50: 39 nM

## Cc1ccccc1Cn1ccnc1 [CHEMBL1651492]
CYP11B1; [11]
  IC50: 61 nM
CYP11B2; [12]
  IC50: 62 nM

## Fc1ccc2c(c1)CC/C2=C\c1ccncc1 [CHEMBL424960]
CYP11B1; [9]
  IC50: 1100 nM
CYP11B2; [10]
  IC50: 15 nM

## c1ccc(-c2cncc(Cc3ccc(-c4ccccc4)nc3)c2)cc1 [CHEMBL2417616]
CYP11B1; [21]
  IC50: 1.3 nM
CYP11B2; [22]
  IC50: 0.5 nM

## COc1cncc(-c2ccc3ccc(OC)cc3c2Cl)c1 [CHEMBL2420681]
CYP11B1; [15]
  IC50: 447 nM
CYP11B2; [16]
  IC50: 24 nM

## Fc1ccc(Cn2cncc2-c2ccccc2)cc1 [CHEMBL610501]
CYP11B1; [17]
  IC50: 16 nM
CYP11B2; [18]
  IC50: 11 nM

## COc1ccc2cc(-c3cncc(C(C)=O)c3)ccc2c1 [CHEMBL502824]
CYP11B1; [13]
  IC50: 255 nM
CYP11B2; [14]
  IC50: 2.1 nM

## COc1ccc2ccc(-c3cncc(O)c3)c(Cl)c2c1 [CHEMBL2420683]
CYP11B1; [15]
  IC50: 7100 nM
CYP11B2; [16]
  IC50: 13 nM

## C=C(c1cccnc1)c1cc2c3c(c1)CCN3C(=O)CC2 [CHEMBL2312966]
CYP11B1; [23]
  IC50: 41 nM
CYP11B2; [24]
  IC50: 468 nM

## O=c1c(Cn2ccnc2)c(-c2ccccc2)oc2cc(F)ccc12 [Compound 3]
CYP11B1; [25]
  IC50: 9.7 nM
CYP11B2; [26]
  IC50: 94.9 nM

## N#Cc1ccc([C@@H]2CCCCc3cncn32)c(-c2ccc(F)cc2)c1 [Compound 4]
CYP11B1; Figure 3, training compounds, ref Meredith et al., 2013, read-out: hCYP11B1 IC50
  IC50: 0.4 nM
CYP11B2; Figure 3, training compounds, ref Meredith et al., 2013, read-out: hCYP11B2 IC50
  IC50: 0.3 nM

## O=C1CCc2cc(C(C3CC3)n3ccnc3)cc3c2N1CC3 (stereo not drawn) [Compound 2]
CYP11B1; [25]
  IC50: 2.2 nM
CYP11B2; [26]
  IC50: 24 nM

## COC(=O)c1ccc2cc(-c3cccnc3)ccc2c1 [CHEMBL438802]
CYP11B1; [19]
  IC50: 10500 nM
CYP11B2; [20]
  IC50: 72 nM

## CC(c1cccnc1)c1cc2c3c(c1)CCN3C(=O)CC2 (stereo not drawn) [CHEMBL2312967]
CYP11B1; [23]
  IC50: 4 nM
CYP11B2; [24]
  IC50: 37 nM

## Brc1ncccc1Cn1ccnc1 [CHEMBL2011242]
CYP11B1; reported activity, supplementary Table 1, ref Hille et al., 2011a, read-out: CYP11B1 IC50
  IC50: 61 nM
CYP11B2; reported activity, supplementary Table 1, ref Hille et al., 2011a, read-out: CYP11B2 IC50
  IC50: 911 nM

## O=C1CCc2cc(-c3cncc(-c4ccccc4F)c3)cc3c2N1CC3 [CHEMBL1765220]
CYP11B1; [7]
  IC50: 43 nM
CYP11B2; [8]
  IC50: 0.7 nM

## O=C1CCc2cc(-c3cccnc3)ccc2N1 [CHEMBL62811]
CYP11B1; [1]
  IC50: 6750 nM
CYP11B2; [2]
  IC50: 28 nM

## Brc1ccc2c(c1)CC/C2=C\c1ccncc1 [CHEMBL366773]
CYP11B1; [9]
  IC50: 2640 nM
CYP11B2; [10]
  IC50: 24 nM

## COC1CCc2cc(-c3cccnc3)ccc2C1 (stereo not drawn) [CHEMBL460178]
CYP11B1; [1]
  IC50: 1140 nM
CYP11B2; [2]
  IC50: 3.3 nM

## Clc1ccc2c(c1)CC/C2=C\c1ccncc1 [CHEMBL175554]
CYP11B1; [9]
  IC50: 1520 nM
CYP11B2; [10]
  IC50: 18 nM

## O=C1CCc2cc(-c3cncc(-c4cccc(O)c4)c3)cc3c2N1CC3 [CHEMBL1765229]
CYP11B1; [7]
  IC50: 44 nM
CYP11B2; [8]
  IC50: 1.2 nM

## CCOc1cncc(-c2ccc3cc(OC)ccc3c2)c1 [CHEMBL445259]
CYP11B1; [13]
  IC50: 373 nM
CYP11B2; [14]
  IC50: 5.1 nM

## COc1cncc(-c2ccc3c(c2)CCC(=O)N3)c1 [CHEMBL457646]
CYP11B1; [1]
  IC50: 339 nM
CYP11B2; [2]
  IC50: 2.7 nM

## O=C1CCc2cc(C(c3cccc(F)c3)n3ccnc3)cc3c2N1CC3 (stereo not drawn) [CHEMBL2163643]
CYP11B1; reported activity, supplementary Table 1, ref Yin et al., 2012, read-out: CYP11B1 IC50
  IC50: 29 nM
CYP11B2; reported activity, supplementary Table 1, ref Yin et al., 2012, read-out: CYP11B2 IC50
  IC50: 18 nM

## CC(c1ccncc1)c1cc2c3c(c1)CCN3C(=O)CC2 (stereo not drawn) [CHEMBL2312950]
CYP11B1; [23]
  IC50: 140 nM
CYP11B2; [24]
  IC50: 74 nM

## OCCCc1cncn1Cc1ccc(Br)cc1 [CHEMBL598810]
CYP11B1; [17]
  IC50: 18 nM
CYP11B2; [18]
  IC50: 6.2 nM

## COC(=O)CCc1cncn1Cc1ccc(Br)cc1 [CHEMBL592614]
CYP11B1; [17]
  IC50: 57 nM
CYP11B2; [18]
  IC50: 4 nM

## C(=C1\CCc2ccccc21)/c1cccnc1 [CHEMBL363621]
CYP11B1; [5]
  IC50: 87 nM
CYP11B2; [6]
  IC50: 92 nM

## O=C1CCc2cc(C(O)(c3ccccc3)c3ccncc3)cc3c2N1CC3 (stereo not drawn) [CHEMBL2312953]
CYP11B1; [23]
  IC50: 745 nM
CYP11B2; [24]
  IC50: 85 nM

## O=C1CCc2cc(C(c3cccnc3)c3cccc(Cl)c3)cc3c2N1CC3 (stereo not drawn) [CHEMBL2312971]
CYP11B1; [23]
  IC50: 36 nM
CYP11B2; [24]
  IC50: > 5000 nM

## c1ccc(-c2ccc(Cc3cccnc3)cn2)cc1 [CHEMBL2417633]
CYP11B1; [21]
  IC50: 32 nM
CYP11B2; [22]
  IC50: 322 nM
